Key:
Assay type in all cases: cell-based, mouse
CD8+ T cells [1] = assay: IFNγ-ELISPOT of predicted H-2b-binding ZIKV peptides; conditions: CD8+ T cells of mice infected with MR766 or FSS13025, day 7; positive: SFC per 10^6 CD8+ T cells ≥20 and stimulation index ≥2
Procedure: CD8^+ T cells were isolated by magnetic bead positive selection (Miltenyi Biotec, Germany). A total of 2×10^5 CD8^+ T cells were stimulated with 1×10^5 LPS-blast cells as antigen presenting cells (APCs) and 10 μg of individual ZIKV-derived peptide in 96-well flat-bottom plates (IMMOBILON™-P; Millipore, MA) coated with anti-mouse IFNγ monoclonal antibody (mAb) (clone AN18; Mabtech, Sweden) in triplicate. IFNγ-ELISPOT was performed as previously detailed (Elong Ngono et al., 2016). Positive peptides were those with a number of spot-forming cells (SFC) per 10^6 CD8^+ T cells ≥20 and a stimulation index ≥2 based on the negative control (DMSO). […]
The following results are with reference to FIG. 3A and FIG. 3B, where five-week-old LysMCre^+IFNAR^fl/fl were infected retro-orbitally with 10^4 FFU of ZIKV MR766 or FSS13025. […] A total of 244 peptides from ZIKV strains predicted to bind H-2Kb and H-2db with high affinity were screened. Two independent experiments for each ZIKV strain (n=5 mice for each experiment) were performed in triplicate per peptide. The data are expressed as the mean of spot forming cells (SFC) per 10^6 CD8^+ T cells, and error bars are represented as SEM. One-way ANOVA was used to compare the mean of each peptide with the control (DMSO) ([…]). […] The dotted line corresponds to the average amount of IFNγ produced by MOCK mice when stimulated with positive ZIKV-derived peptides (0.19% of IFNγ+CD8^+ T cells).

CD8+ T cells [2] = assay: IFNγ ELISPOT, ZIKV-infected Ifnar-/- HLA-B*0702 transgenic mice; conditions: HLA-B*0702 mice; for SFC/10^6 CD8+ T cells, MR766: 7 days after 1×10^2 FFU ZIKV MR766; for SFC/10^6 CD8+ T cells, FSS13025: 7 days after 1×10^2 FFU ZIKV FSS13025; for immunodominance in IFNγ ELISPOT: immunodominant: >500 SFCs/10^6 CD8+ T cells, shared by both ZIKV strains
Procedure: (§1) Two ZIKV strains, MR766 (Uganda, 1947) and FSS13025 (Cambodia, 2010), were obtained from the World Reference Center for Emerging Viruses and Arboviruses (WRCEVA). The mouse-adapted DENV2 strain S221 is a triple-plaque purified clone derived from DENV2 D2S1038. Both ZIKV and DENV2 were amplified in C6/36 mosquito cells, and viral titers were measured using baby hamster kidney (BHK)-21 cell-based focus forming assay (FFA). For epitope screening, 5-week old mice (female or male) were infected retro-orbitally (R.O.) with either 1×102 FFU of ZIKV FSS13025 or ZIKV MR766, or 2×10^4 FFU of DENV2 S221 in 200 μl 10% FBS/PBS. Seven days after infection, CD8^+ T cells were isolated from splenocytes and used for ELISPOT assay, while the splenocytes were directly used for ICS assay. Additionally, 5-week old mice were inoculated I.P. with 2×10^3 FFU of DENV2 S221 for 4 weeks.
CD8^+ T cells were isolated from splenocytes using magnetic bead positive selection (Miltenyi Biotec, Germany) 7 days after virus infection. 2×10^5 CD8^+ T cells were stimulated with 1×10^5 LPS-blasts loaded with 10 μg of individual peptide in 96-well flat-bottom plates (IMMOBILON™-P; Millipore, Bedford, Mass.) that were coated with anti-IFNγ mAb (clone AN18; Mabtech, Stockholm, Sweden) in triplicate. Concanavalin A (ConA) was used as positive control. After 20 hours of incubation, biotinylated anti-mouse IFNγ mAb (R4-6A2; Mabtech), followed by ABC peroxidase (Vector Laboratories, Burlingame, Calif., USA) and then 3-amino-9-ethylcarbazole (Sigma-Aldrich, St. Louis, Mo., USA) were added into the wells. […] A peptide inducing a magnitude of >500 SFCs/10^6 CD8^+ T cells was considered as an immunodominant peptide.
Two independent experiments performed in triplicate were averaged and the error bars represent the SEM. The data are expressed as the mean number of spot forming cells (SFC) per 10^6 CD8^+ T cells. The criteria for positivity were net SFC per 10^6 cells of >20, and a stimulation index of >2.0 when compared with the negative control. Dotted lines represent the cutoff value. * Indicates a positive response. […] ConA denotes Concanavalin A.

CD3+CD8+ T cells = assay: IFNγ ICS, ZIKV-infected Ifnar-/- HLA-B*0702 transgenic mice; conditions: for % IFNγ+ CD8+ T cells, MR766 / % IFNγ+ CD8+ T cells, FSS13025: HLA-B*0702 mice; for % IFNγ+ CD8+ T cells, MR766: 7 days after ZIKV MR766, ICS; for % IFNγ+ CD8+ T cells, FSS13025: 7 days after ZIKV FSS13025, ICS
Procedure: as §1
Spleens were harvested from virus-infected, mock-immunized, or peptide-immunized mice. 1×10^6 splenocytes were plated in each well of 96-well U-bottom plates and stimulated with individual peptide (10 μg crude peptide or 1 μg pure peptide per well) for 6 hours. Five hours before the end of incubation, Brefeldin A (GolgiPlug; BD Biosciences) and PE-conjugated anti CD107a mAb (clone 1D4B, eBioscience) were added to the cells. Splenocytes stimulated with PMA-ionomycin were used as the positive control, while cells without any stimulation were the negative control. […] Samples were run using an LSR™ II (BD Biosciences) and analyzed using FLOWJO™ software X 10.0.7 (Tree Star, Ashland, Oreg.).
Data represent the average of two independent experiments and are expressed as mean±SEM. *, P<0.05; **, P<0.01; Two-tailed Mann-Whitney test. P/I denotes PMA/ionomycin.

Substance | Strains (ZIKV strain for which the peptide induced a positive T cell response, IFNγ-ELISPOT) (CD8+ T cells [1]) | SFC/10^6 CD8+ T cells, MR766 (CD8+ T cells [2]) | also measured
10 (SSWLWKEL) [compound 10] | MR766 | – | –
TPNSPRAEA [FSS/MR-E170-178] | – | 155 SFC/10^6 CD8+ T cells | –
RPAEGGKTVM [MR-NS5332-341] | – | 277 SFC/10^6 CD8+ T cells | % IFNγ+ CD8+ T cells, MR766 (CD3+CD8+ T cells): (0.35%)
26 (SQLTPLTLI) [compound 26] | MR766/FSS | – | –
11 (TGWSNWEEV) [compound 11] | MR766 | – | –
21 (IGVSNRDFV) [compound 21] | MR766/FSS | – | –
24 (RSYCYEASI) [compound 24] | MR766/FSS | – | –
GPCKVPAQMAV [FSS-E337-347] | – | 271 SFC/10^6 CD8+ T cells | –
AAGKRGAAL [MR-NS3596-NS4A1] | – | 148 SFC/10^6 CD8+ T cells | –
TPLTLIVAIIL [FSS/MR-NS4B105-115] | – | 163 SFC/10^6 CD8+ T cells | % IFNγ+ CD8+ T cells, MR766 (CD3+CD8+ T cells): (0.4%)
18 (IMVAVGLL) [compound 18] | MR766/FSS | – | –
19 (ATMSYECPM) [compound 19] | MR766/FSS | – | –
TPHWNNKEAL [FSS/MR-E233-242] | – | 218 SFC/10^6 CD8+ T cells | SFC/10^6 CD8+ T cells, FSS13025 (CD8+ T cells [2]): 158 SFC/10^6 CD8+ T cells; % IFNγ+ CD8+ T cells, MR766 (CD3+CD8+ T cells): (0.3%)
FPDSNSPINI (FPDSNSPIM) [FSS/MR-NS3309-317] | – | 565 SFC/10^6 CD8+ T cells | SFC/10^6 CD8+ T cells, FSS13025 (CD8+ T cells [2]): 335 SFC/10^6 CD8+ T cells; % IFNγ+ CD8+ T cells, MR766 (CD3+CD8+ T cells): (0.49%)
27 (SVKKNLPFVM) [compound 27] | MR766/FSS | – | –
22 (MAVDMQTLTPV) [compound 22] | MR766/FSS | – | –
RPASAWAIYA [FSS/MR-NS4B35-44] | – | 180 SFC/10^6 CD8+ T cells | % IFNγ+ CD8+ T cells, MR766 (CD3+CD8+ T cells): (0.49%)
6 (RAIWYMWL) [compound 6] | MR766 | – | –
GPQRLPVPV [FSS/MR-NS199-107] | – | 103 SFC/10^6 CD8+ T cells | –
14 (YSLECDPAVI) [compound 14] | MR766 | – | –
25 (SNRDFVEGM) [compound 25] | MR766/FSS | – | –
13 (VMIFLSTAV) [compound 13] | MR766 | – | –
LPSHSTRKL [FSS/MR-M4-12] | – | 398 SFC/10^6 CD8+ T cells | SFC/10^6 CD8+ T cells, FSS13025 (CD8+ T cells [2]): 235 SFC/10^6 CD8+ T cells; % IFNγ+ CD8+ T cells, MR766 (CD3+CD8+ T cells): (0.28%)
SPRAEATL [FSS/MR-E173-180] | – | 108 SFC/10^6 CD8+ T cells | SFC/10^6 CD8+ T cells, FSS13025 (CD8+ T cells [2]): 167 SFC/10^6 CD8+ T cells

Substance | Strains (ZIKV strain for which the peptide induced a positive T cell response, IFNγ-ELISPOT) (CD8+ T cells [1]) | SFC/10^6 CD8+ T cells, MR766 (CD8+ T cells [2]) | also measured
23 (RMAVLGDTA) [compound 23] | MR766/FSS | – | –
RPYKAAAAQL [FSS/MR-NS4A36-45] | – | 120 SFC/10^6 CD8+ T cells | –
7 (RQVMNIVSSWL) [compound 7] | MR766 | – | –
12 (TTVSNMAEV) [compound 12] | MR766 | – | –
4 (MSYECPML) [compound 4] | MR766 | – | –
20 (CAEAPNMKVI) [compound 20] | MR766/FSS | – | –
5 (PSVRNGNEI) [compound 5] | MR766 | – | –
SPQDNQMAI [FSS/MR-NS4A125-133] | – | 159 SFC/10^6 CD8+ T cells | –
LPILAALTPL [MR-NS2A141-150] | – | 540 SFC/10^6 CD8+ T cells | % IFNγ+ CD8+ T cells, MR766 (CD3+CD8+ T cells): (0.28%)
16 (SSLINGVVRL) [compound 16] | FSS | – | –
RVIDSRRCL [FSS/MR-NS3405-413] | – | 718 SFC/10^6 CD8+ T cells | SFC/10^6 CD8+ T cells, FSS13025 (CD8+ T cells [2]): 236 SFC/10^6 CD8+ T cells; % IFNγ+ CD8+ T cells, FSS13025 (CD3+CD8+ T cells): (0.23%); % IFNγ+ CD8+ T cells, MR766 (CD3+CD8+ T cells): (0.4%)
RPRTTVVAENI [FSS/MR-NS5605-614] | – | 641 SFC/10^6 CD8+ T cells | SFC/10^6 CD8+ T cells, FSS13025 (CD8+ T cells [2]): 383 SFC/10^6 CD8+ T cells; % IFNγ+ CD8+ T cells, FSS13025 (CD3+CD8+ T cells): (0.22%); % IFNγ+ CD8+ T cells, MR766 (CD3+CD8+ T cells): (0.55%)
15 (AAFTFTKI) [compound 15] | FSS | – | –
29 (VVIKNGSYV) [compound 29] | MR766/FSS | – | –
1 (AAFTFTKV) [compound 1] | MR766 | – | –
8 (SSIAARGYI) [compound 8] | MR766 | – | –
IPYLGKREDL [FSS/MR-NS5587-596] | – | 438 SFC/10^6 CD8+ T cells | SFC/10^6 CD8+ T cells, FSS13025 (CD8+ T cells [2]): 178 SFC/10^6 CD8+ T cells; % IFNγ+ CD8+ T cells, MR766 (CD3+CD8+ T cells): (0.26%)
VPRTDNIAL [MR-NS2A133-141] | – | 776 SFC/10^6 CD8+ T cells | SFC/10^6 CD8+ T cells, FSS13025 (CD8+ T cells [2]): 648 SFC/10^6 CD8+ T cells; immunodominance in IFNγ ELISPOT (CD8+ T cells [2]): immunodominant; % IFNγ+ CD8+ T cells, FSS13025 (CD3+CD8+ T cells): (0.54%); % IFNγ+ CD8+ T cells, MR766 (CD3+CD8+ T cells): (1.39%)
28 (VSFIFRAN) [compound 28] | MR766/FSS | – | –
2 (AAGAWYVYV) [compound 2] | MR766 | – | –
3 (ISFATTLGV) [compound 3] | MR766 | – | –
TPLARGTL [FSS/MR-NS2A148-155] | – | 1055 SFC/10^6 CD8+ T cells | SFC/10^6 CD8+ T cells, FSS13025 (CD8+ T cells [2]): 706 SFC/10^6 CD8+ T cells; immunodominance in IFNγ ELISPOT (CD8+ T cells [2]): immunodominant; % IFNγ+ CD8+ T cells, FSS13025 (CD3+CD8+ T cells): (0.28%); % IFNγ+ CD8+ T cells, MR766 (CD3+CD8+ T cells): (0.87%); simultaneous IFNγ and TNFα production by peptide-stimulated CD8+ T cells (CD3+CD8+ T cells; ZIKV MR766-infected mice): stimulated simultaneous production of IFNγ and TNFα
SPFGGLKRLPA [FSS-C25-35] | – | – | SFC/10^6 CD8+ T cells, FSS13025 (CD8+ T cells [2]): 802 SFC/10^6 CD8+ T cells; % IFNγ+ CD8+ T cells, FSS13025 (CD3+CD8+ T cells): (0.79%); simultaneous IFNγ and TNFα production by peptide-stimulated CD8+ T cells (CD3+CD8+ T cells; ZIKV FSS13025-infected mice): stimulated production of both IFNγ and TNFα
RPEADKVAAI [FSS/MR-NS3492-501] | – | 157 SFC/10^6 CD8+ T cells | –

Reference: patent US11806393B2, “Flavivirus peptide sequences, epitopes, and methods and uses thereof” (priority 2017, dated 2023)
